Values after ≈ are worked out from the molar mass of the structure shown. Values joined by “and” are separate entries in the source; they are usually repeats but may differ in a detail not shown here. Equal values may be shown once. Read-outs that look alike come from different tables or passages of the source.
Tests used:
[1] = cited from earlier work; for health of CF patients (in words): aerosol administration, carbenicillin and gentamicin, twenty CF patients, Lancet 1981
Pseudomonas aeruginosa [2] = test: MIC of tobramycin for P. aeruginosa isolates from sputum of CF patients; type: cell-based; conditions: for # of Patients (isolate with maximum density) / Cumulative Frequency (isolate with maximum density): most common isolate; for Cumulative Frequency (isolate with maximum MIC): most resistant isolate
Protocol: This study was a one-year review of all microbiologic records at Children's Hospital in Seattle. All positive Pseudomonas aeruginosa culture data were collated that occurred in patients with Cystic Fibrosis. If multiple cultures from a single individual had been obtained, the first culture was taken as representative.
MIC90 is the concentration of the drug which inhibits 90% of Pseudomonas aeruginosa isolates. Sputum samples from CF patients were cultured to produce individual colony forming units (CFUs). The MIC was then determined for individual CFUs. CFUs were considered different isolates if their MICs were different.

clinical = type: in vivo, CF patients; conditions: for Sputum Tobramycin Concentrations / Serum Tobramycin: Baseline; for Sputum Tobramycin Concentrations: per subject or mean line; for Serum Tobramycin / concentration at 1 h / concentration at 2 h: single subjects 001-005 in order; for concentration at 10 min / concentration at 1 h / concentration at 2 h: human, inhaled or intranasal, 300 mg; for concentration at 1 h: 1 hour after aerosol; for concentration at 2 h: 2 hours after aerosol
Description: The doses were separated by at least 2 days and not more than 5 days.

[3] = type: in vivo, CF patients; conditions: for ± % change FEV1: 30 min after aerosol, 300 mg in 5 ml 1/4 NS, single subjects 001-005 in order
Protocol: The doses were separated by at least 2 days and not more than 5 days. Peak serum and sputum concentrations were assessed and results are seen in Tables 5 and 6.
(§1) Sixty patients were enrolled. Each patient received, in random order, one administration from each nebulizer delivery system. Each aerosol administration was separated by a minimum of 48 hr. […] Airway irritation and acute bronchospasm were assessed by measuring spirometry immediately prior to and 30 min post-completion of aerosol administration. A decrease in FEV1>15% in the 30 min spirometry test was considered evidence of bronchospasm.

[4] = Clinical Trial II, sputum tobramycin levels with three nebulizers; type: in vivo, patients with cystic fibrosis; conditions: for sputum tobramycin level, grand mean: 20 patients
Protocol: This was an open label, multicenter, randomized, cross-over three arm study. Each arm was different nebulizer delivery system. Two arms deliver the same tobramycin formulation.
2. […] The number of inhalations required as recorded.
3. […] The number of inhalations required was recorded.
as §1, with “Sixty patients were enrolled.” left out
Immediately after completing the aerosol therapy, the subject rinsed with 30 ml of normal saline through the mount, gargled for 5-10 seconds and expectorated the rinse. This was repeated for a total of three rinses. Sputum specimens were collected at 10 minutes after rinsing oral cavity and 2 hours after completion of the aerosol drug administration. […] Spirometry was obtained 30 minutes following completion of the aerosol drug administration. Following the last aerosol treatment of the study, patients received a brief physical exam after post-spirometry has been measured.

[5] = Accelerated stability study at 40° C; type: physicochemical; conditions: pH greater than 7.0
Description: The higher temperature was chosen to accelerate any degradation process. […] Color was examined by KS scale.

[6] = Preliminary pharmacokinetics of tobramycin in sputum after aerosol; type: in vivo, patients with CF; conditions: 20 mg/ml in 30 ml half normal saline; for Cmax: Ultraneb 99, 200 inhalations, twenty patients
Protocol: These levels ranged from 310.4 μg/gm to 5,941 μg/gm, with median level at 1,606 μg/gm). The sputum levels declined rapidly after 30 minutes, reaching a minimum at four hours.

Pseudomonas aeruginosa [7] = test: Previously studied 80 mg doses of tobramycin; type: in vivo, patients; conditions: initially
Description: If any degree of drug resistance developed, only a small percentage of patients would be effectively treated.

P. aeruginosa = conditions: cited from earlier work
[8] = cited from earlier work
[9] = cited from earlier work; remark: listed apart in the source
Pseudomonas aeruginosa [10] = conditions: Pedia Pulmonol. 6:91-8 (1989); cited from earlier work
[11] = Sidestream, 300 mg in 5 ml 1/4 NS
[12] = serum, Serum Tobramycin, Pari LC, 300 mg in 5 ml 1/4 NS

CC1(C)S[C@@H]2[C@H](NC(=O)C(C(=O)O)c3ccccc3)C(=O)N2[C@H]1C(=O)O (stereo partly shown) [carbenicillin]
health of CF patients (in words) [1]: can improve the health of CF patients

NC[C@H]1O[C@H](O[C@H]2[C@H](O)[C@@H](O[C@H]3O[C@H](CO)[C@@H](O)[C@H](N)[C@H]3O)[C@H](N)C[C@@H]2N)[C@H](N)C[C@@H]1O [tobramycin]
share of isolates whose MIC is exceeded approximately ten-fold by a sputum level of 128 μg/gm (Pseudomonas aeruginosa [2]; 128 μg/gm sputum level approximately ten-fold greater than MIC): 90%
share of isolates whose MIC is reached by a sputum level of 128 μg/gm (Pseudomonas aeruginosa [2]; 128 μg/gm sputum level greater than or equal to MIC): 98%
# of Patients (isolate with maximum density) (Pseudomonas aeruginosa [2]; MIC 1 μg/ml, n=58): 9
Cumulative Frequency (isolate with maximum density) (Pseudomonas aeruginosa [2]; MIC 1 μg/ml, n=58): 78%
Cumulative Frequency (isolate with maximum MIC) (Pseudomonas aeruginosa [2]; MIC 1 μg/ml, n=58): 67%
# of Patients (isolate with maximum density) (Pseudomonas aeruginosa [2]; MIC 2 μg/ml, n=58): 3
Cumulative Frequency (isolate with maximum density) (Pseudomonas aeruginosa [2]; MIC 2 μg/ml, n=58): 83%
Cumulative Frequency (isolate with maximum MIC) (Pseudomonas aeruginosa [2]; MIC 2 μg/ml, n=58): 75%
# of Patients (isolate with maximum density) (Pseudomonas aeruginosa [2]; MIC 4 μg/ml, n=58): 2
Cumulative Frequency (isolate with maximum density) (Pseudomonas aeruginosa [2]; MIC 4 μg/ml, n=58): 86%
Cumulative Frequency (isolate with maximum MIC) (Pseudomonas aeruginosa [2]; MIC 4 μg/ml, n=58): 83%
# of Patients (isolate with maximum density) (Pseudomonas aeruginosa [2]; MIC 8 μg/ml, n=58): 2
Cumulative Frequency (isolate with maximum density) (Pseudomonas aeruginosa [2]; MIC 8 μg/ml, n=58): 90%
Cumulative Frequency (isolate with maximum MIC) (Pseudomonas aeruginosa [2]; MIC 8 μg/ml, n=58): 86%
# of Patients (isolate with maximum density) (Pseudomonas aeruginosa [2]; MIC 16 μg/ml, n=58): 2
Cumulative Frequency (isolate with maximum density) (Pseudomonas aeruginosa [2]; MIC 16 μg/ml, n=58): 93%
Cumulative Frequency (isolate with maximum MIC) (Pseudomonas aeruginosa [2]; MIC 16 μg/ml, n=58): 90%
# of Patients (isolate with maximum density) (Pseudomonas aeruginosa [2]; MIC 32 μg/ml, n=58): 1
Cumulative Frequency (isolate with maximum density) (Pseudomonas aeruginosa [2]; MIC 32 μg/ml, n=58): 95%
Cumulative Frequency (isolate with maximum MIC) (Pseudomonas aeruginosa [2]; MIC 32 μg/ml, n=58): 93%
# of Patients (isolate with maximum density) (Pseudomonas aeruginosa [2]; MIC 64 μg/ml, n=58): 1
Cumulative Frequency (isolate with maximum density) (Pseudomonas aeruginosa [2]; MIC 64 μg/ml, n=58): 97%
Cumulative Frequency (isolate with maximum MIC) (Pseudomonas aeruginosa [2]; MIC 64 μg/ml, n=58): 95%
# of Patients (isolate with maximum density) (Pseudomonas aeruginosa [2]; MIC 128 μg/ml, n=58): 2
Cumulative Frequency (isolate with maximum density) (Pseudomonas aeruginosa [2]; MIC 128 μg/ml, n=58): 98%
Cumulative Frequency (isolate with maximum MIC) (Pseudomonas aeruginosa [2]; MIC 128 μg/ml, n=58): 98%
# of Patients (isolate with maximum density) (Pseudomonas aeruginosa [2]; MIC 256 μg/ml, n=58): 1
Cumulative Frequency (isolate with maximum density) (Pseudomonas aeruginosa [2]; MIC 256 μg/ml, n=58): 100%
Cumulative Frequency (isolate with maximum MIC) (Pseudomonas aeruginosa [2]; MIC 256 μg/ml, n=58): 100%
# of Patients (isolate with maximum density) (Pseudomonas aeruginosa [2]; MIC .25 μg/ml, n=58): 26
Cumulative Frequency (isolate with maximum density) (Pseudomonas aeruginosa [2]; MIC .25 μg/ml, n=58): 45%
Cumulative Frequency (isolate with maximum MIC) (Pseudomonas aeruginosa [2]; MIC .25 μg/ml, n=58): 36%
# of Patients (isolate with maximum density) (Pseudomonas aeruginosa [2]; MIC .5 μg/ml, n=58): 10
Cumulative Frequency (isolate with maximum density) (Pseudomonas aeruginosa [2]; MIC .5 μg/ml, n=58): 63%
Cumulative Frequency (isolate with maximum MIC) (Pseudomonas aeruginosa [2]; MIC .5 μg/ml, n=58): 53%
MIC (Pseudomonas aeruginosa [2]; Pseudomonas aeruginosa): 128 µg/mL
inhibition at 128 µg/mL (Pseudomonas aeruginosa [2]; Pseudomonas aeruginosa, read-out: inhibition of most resistant and most common isolates): 98%
MIC (Pseudomonas aeruginosa [2]; Table 3: most tobramycin-resistant isolate of each patient, n=58, number of patients on same line): .25 µg/mL and .5 µg/mL and 1 µg/mL and 2 µg/mL and 4 µg/mL and 8 µg/mL and 16 µg/mL and 32 µg/mL and 64 µg/mL and 256 µg/mL
MIC (Pseudomonas aeruginosa [2]; Table 4: most common isolate (maximum density) of each patient, n=58, number of patients on same line): .25 µg/mL and .5 µg/mL and 1 µg/mL and 2 µg/mL and 4 µg/mL and 8 µg/mL and 16 µg/mL and 32 µg/mL and 64 µg/mL and 128 µg/mL and 256 µg/mL
Sputum Tobramycin Concentrations (clinical; Pari LC, 300 mg in 5 ml 1/4 NS): bql (< 20 μg/gm)
Serum Tobramycin (clinical; Pari LC, 300 mg in 5 ml 1/4 NS): not detected
achievement of target sputum concentration (in words) (clinical; Sidestream and Pari LC, target 128-1000 μg/g, 300 mg in 5 ml 1/4 NS): able to achieve a target concentrations of tobramycin in sputum
Sputum Tobramycin Concentrations (clinical; [11]): bql (< 20 μg/gm)
Serum Tobramycin (clinical; [11]): not detected
concentration at 10 min (clinical; in vivo, Sidestream, 10 min, 5 subjects): 527000 ± 586000 ng/g
concentration at 1 h (clinical; [12]): 500 ng/mL
concentration at 2 h (clinical; [12]): 400 ng/mL
concentration at 1 h (clinical; serum, Serum Tobramycin, Sidestream, 300 mg in 5 ml 1/4 NS): 200 ng/mL
concentration at 10 min (clinical; sputum, 300 mg in 5 ml of 60 mg/ml in 1/4 NS, read-out: sputum concentration achieved (target concentration)): > 128000 ng/g
concentration at 10 min (clinical; sputum, Sputum Tobramycin Concentrations, Mean/Std Dev, Pari LC, 10 min, 5 subjects): 811000 ± 677000 ng/g
concentration at 2 h (clinical; sputum, Sputum Tobramycin Concentrations, Sidestream, 300 mg in 5 ml 1/4 NS): 57500 ng/g
safety of dosage (in words) ([3]; 300 mg in 5 ml of 60 mg/ml in 1/4 NS): extremely safe
± % change FEV1 ([3]; Pari LC): -1.2% and 1.2% and -0.6% and -2% and -5%
± % change FEV1 ([3]; Sidestream): -2.2% and 0.0% and -7.6% and -1%
sputum tobramycin level, grand mean ([4]; Pari LC, 0, 300 mg in 5 ml 0.225 NS): 0 µg
sputum tobramycin level, grand mean ([4]; Pari LC, 10 min, 300 mg in 5 ml 0.225 NS): 639.1 µg
sputum tobramycin level, grand mean ([4]; Pari LC, 1 hr, 300 mg in 5 ml 0.225 NS): 117.0 µg
sputum tobramycin level, grand mean ([4]; Pari LC, 2 hr, 300 mg in 5 ml 0.225 NS): 77.6 µg
sputum tobramycin level, grand mean ([4]; Sidestream, 0 hr, 300 mg in 5 ml 0.225 NS): 0 µg
sputum tobramycin level, grand mean ([4]; Sidestream, 10 min, 300 mg in 5 ml 0.225 NS): 465.3 µg
sputum tobramycin level, grand mean ([4]; Sidestream, 1 hr, 300 mg in 5 ml 0.225 NS): 75.7 µg
sputum tobramycin level, grand mean ([4]; Sidestream, 2 hr, 300 mg in 5 ml 0.225 NS): 88.8 µg
sputum tobramycin level, grand mean ([4]; Ultra Neb, 0 hr, 600 mg in 30 ml 0.45% NS): 0 µg
sputum tobramycin level, grand mean ([4]; Ultra Neb, 10 min, 600 mg in 30 ml 0.45% NS): 1335.7 µg
sputum tobramycin level, grand mean ([4]; Ultra Neb, 1 hr, 600 mg in 30 ml 0.45% NS): 360.0 µg
sputum tobramycin level, grand mean ([4]; Ultra Neb, 2 hr, 600 mg in 30 ml 0.45% NS): 158.8 µg
concentrations delivered to the endobronchial space (in words) ([4]; formulation used with a jet nebulizer): in the efficacious range
endobronchial concentration with half dosage (in words) ([4]; human, in vivo): sufficient to achieve therapeutically effective concentration of tobramycin in the endobronchial space
degradation of tobramycin (in words) [5]: degradation of tobramycin occurs
time of minimum sputum level ([6]; Ultraneb 99): four
Cmax ([6]; human, sputum, inhaled or intranasal, read-out: peak sputum level, median): 1.61e+06 ng/g
Cmax ([6]; human, sputum, inhaled or intranasal, read-out: peak sputum levels, range): 310000 to 5.94e+06 ng/g
Tmax ([6]; human, sputum, inhaled or intranasal, Ultraneb 99, read-out: time of peak sputum levels after therapy): 10 to 30 min
share of patients in whom dose would be predicted to be efficacious (Pseudomonas aeruginosa [7]): sixty to seventy
reduction in the density of P. aeruginosa in sputum, factor (P. aeruginosa; aerosolized, all three 28-day periods): 100
improvement with aerosolized treatment (in words) (P. aeruginosa; entire three-period study): significant improvement
solubility [8]: 160 mg/mL (≈ 342 mM)
binding by sputum [9]: up to 90%
treatment of exacerbations in CF (in words) ([1]; parenteral, short period of time): successfully treat exacerbations which occur in patients with CF
efficacy of 80 mg doses (in words) (Pseudomonas aeruginosa [10]): reported effective

gentamicin
health of CF patients (in words) [1]: can improve the health of CF patients

Source: patent publication US5508269A, “Aminoglycoside formulation for aerosolization” (priority 1994, dated 1996)
